Assay results published in ChEMBL document CHEMBL5126603, “Discovery of Clinical Candidate CHF-6366: A Novel Super-soft Dual Pharmacology Muscarinic Antagonist and β2 Agonist (MABA) for the Inhaled Treatment of Respiratory Diseases” (J Med Chem, 2022).

What was measured:
[1] = Half life in Dunkin-Hartley guinea pig plasma at 500 nmol/Kg, IT(Intratracheal) measured after 72 hrs by LC/MS-MS analysis; type: ADME, cell-free, Cavia porcellus; conditions: inhaled or intranasal
[2] = Cmax in Dunkin-Hartley guinea pig lung at 500 nmol/Kg, IT(Intratracheal) measured after 72 hrs by LC/MS-MS analysis; type: ADME, tissue-based, Cavia porcellus; design: time 72 hrs, dose 500 nmol/kg, route it(Intratracheal); conditions: inhaled or intranasal
[3] = Cmax in Dunkin-Hartley guinea pig plasma at 500 nmol/Kg, IT(Intratracheal) measured after 72 hrs by LC/MS-MS analysis; type: ADME, cell-free, Cavia porcellus; design: dose 500 nmol/kg, time 72 hrs, route it(Intratracheal); conditions: inhaled or intranasal
[4] = AUCinfinity in Dunkin-Hartley guinea pig plasma at 500 nmol/Kg, IT(Intratracheal) measured after 72 hrs by LC/MS-MS analysis; type: ADME, cell-free, Cavia porcellus; design: dose 500 nmol/kg, time 72 hrs, route it(Intratracheal); conditions: inhaled or intranasal
[5] = Tmax in Dunkin-Hartley guinea pig lung at 500 nmol/Kg, IT(Intratracheal) measured after 72 hrs by LC/MS-MS analysis; type: ADME, tissue-based, Cavia porcellus; conditions: inhaled or intranasal
[6] = AUCinfinity in Dunkin-Hartley guinea pig lung at 500 nmol/Kg, IT(Intratracheal) measured after 72 hrs by LC/MS-MS analysis; type: ADME, tissue-based, Cavia porcellus; design: dose 500 nmol/kg, time 72 hrs, route it(Intratracheal); conditions: in vivo, inhaled_or_intranasal
[7] = tested on: Trachea; assay: (§1) Bifunctional antagonist activity at muscarinic M3 receptor /agonist activity at beta-2 adrenoceptor in Dunkin-Hartley guinea pig trachea assessed as inhibition of acetylcholine-induced bronchoconstriction at 1 nmol/Kg, IT(Intratracheal) measured after 5 mins by Konzett-Roessler methodology relative to control; type: functional; conditions: Cavia porcellus
[8] = AUClast in Dunkin-Hartley guinea pig lung at 500 nmol/Kg, IT(Intratracheal) measured after 72 hrs by LC/MS-MS analysis; type: ADME, tissue-based, Cavia porcellus; conditions: in vivo, inhaled_or_intranasal
[9] = AUClast in Dunkin-Hartley guinea pig plasma at 500 nmol/Kg, IT(Intratracheal) measured after 72 hrs by LC/MS-MS analysis; type: ADME, cell-free, Cavia porcellus; design: time 72 hrs, dose 500 nmol/kg, route it(Intratracheal); conditions: inhaled or intranasal
[10] = Mutagenicity in Escherichia coli assessed as induction of reverse mutation by Ames test; type: toxicity
[11] = tested on: Trachea; assay: as §1, with “30” for “5”; type: functional; conditions: Cavia porcellus, 0.5 h
[12] = Mutagenicity in Salmonella typhimurium assessed as induction of reverse mutation by Ames test; type: toxicity; conditions: salmonella enterica subsp. enterica serovar typhimurium
[13] = Tmax in Dunkin-Hartley guinea pig plasma at 500 nmol/Kg, IT(Intratracheal) measured after 72 hrs by LC/MS-MS analysis; type: ADME, cell-free, Cavia porcellus; conditions: inhaled or intranasal
[14] = Half life in Dunkin-Hartley guinea pig lung at 500 nmol/Kg, IT(Intratracheal) measured after 72 hrs by LC/MS-MS analysis; type: ADME, tissue-based, Cavia porcellus; conditions: inhaled or intranasal
[15] = tested on: Trachea; assay: as §1, with “15” for “5”; type: functional; conditions: Cavia porcellus, 0.25 h
[16] = Metabolic stability in human plasma assessed as half life at 5 uM measured upto 120 mins by LC-MS/MS analysis; type: ADME, cell-free
[17] = Metabolic stability in rat plasma assessed as half life at 5 uM measured upto 120 mins by LC-MS/MS analysis; type: ADME, cell-free
[18] = In vivo antagonist activity at muscarinic M3 receptor in Dunkin-Hartley guinea pig trachea assessed as inhibition of acetylcholine induced bronchoconstriction at 1 nmol/Kg, IT(Intratracheal) measured after 24 hr in presence of ICI-118551 by Konzett-Roessler methodology relative to control; type: functional; conditions: Cavia porcellus
[19] = tested on: Trachea; assay: as §1, with “3” for “1”, “24 hr” for “5 mins”; type: functional; conditions: Cavia porcellus
[20] = Metabolic stability in rat lung S9 fraction assessed as half life at 1 uM measured after 0 to 60 mins in presence of NADPH by LC-MS/MS analysis; type: ADME, subcellular; conditions: time 0-60 min
[21] = In vivo agonist activity at beta-2 adrenoceptor in Dunkin-Hartley guinea pig trachea assessed as inhibition of histamine induced bronchoconstriction at 1 nmol/Kg, IT(Intratracheal) measured after 1 hr by Konzett-Roessler methodology relative to control; type: functional; conditions: Cavia porcellus
[22] = tested on: Trachea; assay: as §1, with “3” for “1”, “1 hr” for “5 mins”; type: functional; conditions: Cavia porcellus
[23] = Metabolic stability in Dunkin-Hartley guinea pig lung S9 fraction assessed as half life at 1 uM measured after 0 to 60 mins in presence of NADPH by LC-MS/MS analysis; type: ADME, subcellular, Cavia porcellus; conditions: time 0-60 min
[24] = tested on: Trachea; assay: In vivo bifunctional antagonist activity at muscarinic M3 receptor /agonist activity at beta-2 adrenoceptor in Dunkin-Hartley guinea pig trachea assessed as inhibition of carbachol induced contraction; type: functional, tissue-based; conditions: Cavia porcellus
[25] = tested on: Trachea; assay: as §1, with “acetylcholine induced” for “acetylcholine-induced”, “24 hr” for “5 mins”; type: functional; conditions: Cavia porcellus
[26] = In vivo antagonist activity at muscarinic M3 receptor in Dunkin-Hartley guinea pig trachea assessed as inhibition of acetylcholine-induced bronchoconstriction at 3 nmol/Kg, IT(Intratracheal) measured after 24 hr in presence of ICI-118551 by Konzett-Roessler methodology relative to control; type: functional; conditions: Cavia porcellus
[27] = In vivo antagonist activity at muscarinic M3 receptor in Dunkin-Hartley guinea pig trachea assessed as inhibition of acetylcholine-induced bronchoconstriction at 3 nmol/Kg, IT(Intratracheal) measured after 1 hr in presence of ICI-118551 by Konzett-Roessler methodology relative to control; type: functional; conditions: Cavia porcellus
[28] = In vivo antagonist activity at muscarinic M3 receptor in Dunkin-Hartley guinea pig trachea assessed as inhibition of acetylcholine induced bronchoconstriction at 1 nmol/Kg, IT(Intratracheal) measured after 1 hr in presence of ICI-118551 by Konzett-Roessler methodology relative to control; type: functional; conditions: Cavia porcellus
[29] = In vivo agonist activity at beta-2 adrenoceptor in Dunkin-Hartley guinea pig trachea assessed as inhibition of histamine-induced bronchoconstriction at 3 nmol/Kg, IT(Intratracheal) measured after 24 hr by Konzett-Roessler methodology relative to control; type: functional; conditions: Cavia porcellus
[30] = In vivo agonist activity at beta-2 adrenoceptor in Dunkin-Hartley guinea pig trachea assessed as inhibition of histamine-induced bronchoconstriction at 3 nmol/Kg, IT(Intratracheal) measured after 1 hr by Konzett-Roessler methodology relative to control; type: functional; conditions: Cavia porcellus
[31] = tested on: Trachea; assay: as §1, with “acetylcholine induced” for “acetylcholine-induced”, “1 hr” for “5 mins”; type: functional; conditions: Cavia porcellus
[32] = tested on: Trachea; assay: In vivo bifunctional antagonist activity at muscarinic M3 receptor /agonist activity at beta-2 adrenoceptor in Dunkin-Hartley guinea pig trachea assessed as time duration for inhibition of carbachol induced contraction measured […]; type: functional, Cavia porcellus
[33] = Metabolic stability in Dunkin-Hartley guinea pig plasma assessed as half life at 5 uM measured upto 120 mins by LC-MS/MS analysis; type: ADME, cell-free, Cavia porcellus
[34] = Metabolic stability in human lung S9 fraction assessed as half life at 1 uM measured after 0 to 60 mins in presence of NADPH by LC-MS/MS analysis; type: ADME, subcellular; conditions: time 0-60 min

`Cn1nc(C(=O)O)cc1COc1cccc([C@@H](NC(=O)O[C@H]2CN3CCC2CC3)c2ccccc2)c1` gave a half-life [1] of 1240 min, a Cmax [2] of 1450 ng/g and a Cmax [3] of 41.7 ng/g. It also gave an AUC(0-inf) [4] of 296 ng·h/mL, a Tmax [5] of 4.98 min and an AUC [6] of 6465 ng·h/g. It also gave an inhibition in vivo at 0.001 µmol/kg [7] of 0.84%, an AUClast [8] of 6226 ng·h/g and an AUC(0-t) at 72 h [9] of 179 ng·h/mL. The Activity [10] was “Non-Toxic”, the inhibition in vivo at 0.001 µmol/kg [11] was 3.36% and the Activity [12] was “Non-Toxic”. For the same molecule, the Tmax [13] was 4.98 min, the half-life [14] was 316 min and the inhibition in vivo at 0.001 µmol/kg [15] was 1.92%.

For `O=C(N[C@@H](c1ccccc1)c1cccc(OCc2nc(C(=O)OCCCCNC[C@H](O)c3ccc(O)c4[nH]c(=O)ccc34)co2)c1)O[C@H]1CN2CCC1CC2`, the half-life at 5 µM [16] was under 5 min, the half-life at 5 µM [17] was under 5 min and the inhibition in vivo at 0.001 µmol/kg [18] was 23.8%. The inhibition in vivo at 0.003 µmol/kg [19] was 58.8%, the half-life at 1 µM [20] was 120 min and the inhibition in vivo at 0.001 µmol/kg [21] was 67.7%. It also gave an inhibition in vivo at 0.003 µmol/kg [22] of 97.2%, a half-life at 1 µM [23] of over 120 min and an IC50 [24] of 0.251 nM. The inhibition in vivo at 0.001 µmol/kg [25] was 31.9%, the inhibition in vivo at 0.003 µmol/kg [26] was 37.2% and the inhibition in vivo at 0.003 µmol/kg [27] was 96.1%. It also gave an inhibition in vivo at 0.001 µmol/kg [28] of 65.5%, an inhibition in vivo at 0.003 µmol/kg [29] of 49.9% and an inhibition in vivo at 0.003 µmol/kg [30] of 97.5%. The inhibition in vivo at 0.001 µmol/kg [31] was 70%, the Time [32] was over 270 min and the half-life at 5 µM [33] was 77.9 min. For the same molecule, the half-life at 1 µM [34] was 35 min.

`O=C(N[C@H](c1ccccc1)c1cccc(OCc2ccc(C(=O)OCCCCNC[C@H](O)c3ccc(O)c4[nH]c(=O)ccc34)cc2)c1)O[C@H]1CN2CCC1CC2` showed a half-life at 5 µM [16] of under 5 min, a half-life at 5 µM [17] of under 5 min and an IC50 [24] of 1.26 nM. The Time [32] was 180 min, the half-life at 5 µM [33] was 46.7 min and the half-life at 1 µM [34] was 16.8 min.

`O=C(NC(c1ccccc1)c1cccc(OCc2ccc(C(=O)OCCCCNC[C@H](O)c3ccc(O)c4[nH]c(=O)ccc34)cc2)c1)O[C@H]1CN2CCC1CC2` (mixture of isomers) showed a half-life at 5 µM [16] of under 5 min, a half-life at 5 µM [17] of under 5 min and an IC50 [24] of 0.0794 nM. The Time [32] was over 270 min.

`O=C(N[C@@H](c1ccccc1)c1cccc(OCc2cccc(C(=O)OCCCCNC[C@H](O)c3ccc(O)c4[nH]c(=O)ccc34)c2)c1)O[C@H]1CN2CCC1CC2` showed a half-life at 5 µM [16] of under 5 min, a half-life at 5 µM [17] of 103 min and an IC50 [24] of 0.501 nM. It also gave a Time [32] of over 225 min and a half-life at 1 µM [34] of 17.2 min.
